# Source: PMC12396409, “Screening and hit evaluation of a microbial metabolite library against the pathogenic Plasmodium falciparum and Toxoplasma gondii parasites” (International Journal for Parasitology: Drugs and Drug …, 2025)
# Counter-ions that a name gives are not always drawn. Like-named read-outs stand apart in the source and are kept apart here. *1 amine or outer side, *2 acyl side, *3 side chain or, on linkers, in order; H or OH if unused. Where a SMILES comes first, the peptide text is derived from it. Bridges are numbered along the chain shown (N, C = ends). [ ]: non-standard residue; d: D form. The star is where a group is joined. X1 = O=C1C[C@@H](C(=O)[*:2])N([*:1])C[C@H]1CS[C@@H]1CN2CCC1CC2; NMePhe(4-NMe2) = CN[C@@H](Cc1ccc(N(C)C)cc1)C(=O)O; Picolinoyl(3-OH) = O=C(c1ncccc1O)*; dNMeL = CN[C@H](CC(C)C)C(=O)O; Phg = N[C@H](C(=O)O)c1ccccc1; Hiv = CC(C)[C@H](O)C(=O)O; dAbu = CC[C@@H](N)C(=O)O
# Columns and labels:
# [1] = test system: P. falciparum 3D7 parasites; test: P. falciparum growth inhibition assay, 1-cycle (72 h treatment), SYBR DNA staining (library screen at 2 μg/mL and dose-response); assay type: cell-based, Plasmodium falciparum; conditions: for activity at 2 µg/mL: Plasmodium falciparum, 3D7
# [2] = test system: T. gondii RH strain (RH-Tub-eYFP) tachyzoites; test: microbe, parasite or virus in culture; assay type: cell-based, Toxoplasma gondii; conditions: 72 h; for percent parasite growth at 2 µg/mL: Toxoplasma gondii
# [3] = test system: P. falciparum 3D7 parasites; test: P. falciparum growth inhibition assay, 2-cycle (120 h treatment), delayed-death screen and dose-response; assay type: cell-based, Plasmodium falciparum; conditions: for activity at 2 µg/mL: Plasmodium falciparum, 3D7
# [4] = P. falciparum, 72 h, parasite screen 2 μg/mL, % growth, replicate 1
# [5] = P. falciparum, 72 h, parasite screen 2 μg/mL, % growth, replicate 2
# [6] = T. gondii, parasite screen 2 μg/mL, % growth, replicate 1
# [7] = T. gondii, parasite screen 2 μg/mL, % growth, replicate 2
# [8] = P. falciparum, 120 h, parasite screen 2 μg/mL, % growth, replicate 1
# [9] = P. falciparum, 120 h, parasite screen 2 μg/mL, % growth, replicate 2
# [10] = P. falciparum, 72 h, screen at 2 μg/mL, replicate 1
# [11] = P. falciparum, 72 h, screen at 2 μg/mL, replicate 2
# [12] = T. gondii, screen at 2 μg/mL, replicate 1
# [13] = T. gondii, screen at 2 μg/mL, replicate 2
# [14] = P. falciparum, 120 h, screen at 2 μg/mL, replicate 1
# [15] = P. falciparum, 120 h, screen at 2 μg/mL, replicate 2
# [16] = library screen at 2 μg/mL, 72 h, % growth, replicate 1
# [17] = library screen at 2 μg/mL, 72 h, % growth, replicate 2
# [18] = library screen at 2 μg/mL, % growth, replicate 1
# [19] = library screen at 2 μg/mL, % growth, replicate 2
# [20] = library screen at 2 μg/mL, 120 h, % growth, replicate 1
# [21] = library screen at 2 μg/mL, 120 h, % growth, replicate 2
structure (smiles),measurement,setting,value
CC[C@H]1NC(=O)[C@@H](NC(=O)c2ncccc2O)[C@@H](C)OC(=O)[C@H](c2ccccc2)NC(=O)[C@@H]2CC(=O)[C@H](CS[C@@H]3CN4CCC3CC4)CN2C(=O)[C@H](Cc2ccc(N(C)C)cc2)N(C)C(=O)[C@@H]2CCCN2C1=O.CS(=O)(=O)O [Quinupristin mesylate] ({Picolinoyl(3-OH)}-T[dAbu]P[NMePhe(4-NMe2)][X1][Phg]; ester 1-C),Pf_72h_%Growth_Rep1,[1]; [4],73.76%
same,Pf_72h_%Growth_Rep2,[1]; [5],97.23%
same,Tg_72h_%Growth_Rep1,[2]; [6],87.31%
same,Tg_72h_%Growth_Rep2,[2]; [7],81.75%
same,Pf_120h_%Growth_Rep1,[3]; [8],64.23%
same,Pf_120h_%Growth_Rep2,[3]; [9],110.37%
O=C(N[C@H](CO)[C@H](O)c1ccc([N+](=O)[O-])cc1)C(Br)Br [Bromamphenicol],Pf_72h_%Growth_Rep1,[1]; [10],93.46%
same,Pf_72h_%Growth_Rep2,[1]; [11],85.21%
same,Tg_72h_%Growth_Rep1,[2]; [12],80.35%
same,Tg_72h_%Growth_Rep2,[2]; [13],93.07%
same,Pf_120h_%Growth_Rep1,[3]; [14],132.78%
same,Pf_120h_%Growth_Rep2,[3]; [15],78.55%
C[C@H]1OC(=O)C=C[C@@H](O)[C@@H](O)CCCCCCCC[C@@H]1O [Berkeleylactone F],Pf_72h_%Growth_Rep1,[1]; [16],78.45%
same,Pf_72h_%Growth_Rep2,[1]; [17],83.14%
same,Tg_72h_%Growth_Rep1,[2]; [18],83.11%
same,Tg_72h_%Growth_Rep2,[2]; [19],88.17%
same,Pf_120h_%Growth_Rep1,[3]; [20],146.18%
same,Pf_120h_%Growth_Rep2,[3]; [21],96.20%
CN[C@@H]1C[C@H]2O[C@@](C)([C@@H]1OC)n1c3ccccc3c3c4c(c5c6ccccc6n2c5c31)C(=O)N[C@H]4O [UCN-02],Pf_72h_%Growth_Rep1,[1]; [10],0.18%
same,Pf_72h_%Growth_Rep2,[1]; [11],-6.73%
same,Tg_72h_%Growth_Rep1,[2]; [12],2.39%
same,Tg_72h_%Growth_Rep2,[2]; [13],1.72%
same,Pf_120h_%Growth_Rep1,[3]; [14],30.31%
same,Pf_120h_%Growth_Rep2,[3]; [15],6.39%
CO[C@H]1/C=C\C=C(\C)C[C@H](C)[C@H](O)[C@H](C)/C=C(C)\C=C(\C)C(=O)O[C@@H]1[C@@H](C)[C@@H](O)[C@H](C)[C@@]1(O)C[C@@H](OC(=O)/C=C/C(=O)O)[C@H](C)[C@@H](C(C)C)O1 [TS 155-2],Pf_72h_%Growth_Rep1,[1]; [10],3.32%
same,Pf_72h_%Growth_Rep2,[1]; [11],-2.51%
same,Tg_72h_%Growth_Rep1,[2]; [12],1.68%
same,Tg_72h_%Growth_Rep2,[2]; [13],-0.35%
same,Pf_120h_%Growth_Rep1,[3]; [14],23.01%
same,Pf_120h_%Growth_Rep2,[3]; [15],6.11%
CN(C)[C@@H]1C(O)=C(C(=O)NCN2CCCC2)C(=O)[C@@]2(O)C(O)=C3C(=O)c4c(O)cccc4[C@@](C)(O)[C@H]3C[C@@H]12 [Rolitetracycline],activity at 2 µg/mL,"[1]; P. falciparum, 72 h, parasite screen 2 μg/mL, % growth, replicate 1, read-out: Pf_72h_%Growth_Rep1",87.6%
same,activity at 2 µg/mL,"[1]; P. falciparum, 72 h, parasite screen 2 μg/mL, % growth, replicate 2, read-out: Pf_72h_%Growth_Rep2",70%
same,percent parasite growth at 2 µg/mL,"[2]; T. gondii, parasite screen 2 μg/mL, % growth, replicate 1, read-out: Tg_72h_%Growth_Rep1",105%
same,percent parasite growth at 2 µg/mL,"[2]; T. gondii, parasite screen 2 μg/mL, % growth, replicate 2, read-out: Tg_72h_%Growth_Rep2",84.7%
same,activity at 2 µg/mL,"[3]; P. falciparum, 120 h, parasite screen 2 μg/mL, % growth, replicate 1, read-out: Pf_120h_%Growth_Rep1",82.2%
same,activity at 2 µg/mL,"[3]; P. falciparum, 120 h, parasite screen 2 μg/mL, % growth, replicate 2, read-out: Pf_120h_%Growth_Rep2",135%
O=C1N[C@@H](Cc2c[nH]c3ccccc23)C(=O)N2CCC[C@@H]12 [Brevianamide F],activity at 2 µg/mL,"[1]; P. falciparum, 72 h, screen at 2 μg/mL, replicate 1, read-out: Pf_72h_%Growth_Rep1",103%
same,activity at 2 µg/mL,"[1]; P. falciparum, 72 h, screen at 2 μg/mL, replicate 2, read-out: Pf_72h_%Growth_Rep2",84.4%
same,percent parasite growth at 2 µg/mL,"[2]; T. gondii, screen at 2 μg/mL, replicate 1, read-out: Tg_72h_%Growth_Rep1",83.3%
same,percent parasite growth at 2 µg/mL,"[2]; T. gondii, screen at 2 μg/mL, replicate 2, read-out: Tg_72h_%Growth_Rep2",92%
same,activity at 2 µg/mL,"[3]; P. falciparum, 120 h, screen at 2 μg/mL, replicate 1, read-out: Pf_120h_%Growth_Rep1",148%
same,activity at 2 µg/mL,"[3]; P. falciparum, 120 h, screen at 2 μg/mL, replicate 2, read-out: Pf_120h_%Growth_Rep2",91%
COc1ccc2cc1Oc1cc(ccc1O)[C@H](O)[C@]13SS[C@@]4(C(=O)N1C)[C@H](O)C1=COC=C[C@H](OC2=O)[C@H]1N4C3=O [Emestrin],Pf_72h_%Growth_Rep1,[1]; [16],36.85%
same,Pf_72h_%Growth_Rep2,[1]; [17],26.37%
same,Tg_72h_%Growth_Rep1,[2]; [18],2.77%
same,Tg_72h_%Growth_Rep2,[2]; [19],0.86%
same,Pf_120h_%Growth_Rep1,[3]; [20],35.44%
same,Pf_120h_%Growth_Rep2,[3]; [21],47.36%
CC(C)C[C@@H]1NC(=O)[C@H](C(C)C)NC(=O)[C@H](C(C)C)OC(=O)[C@@H](CC(C)C)N(C)C(=O)[C@@H](C(C)C)NC(=O)[C@H](C(C)C)OC1=O [Sporidesmolide I] (cyclo([Hiv]VL[Hiv][dV][dNMeL])),Pf_72h_%Growth_Rep1,[1]; [4],86.99%
same,Pf_72h_%Growth_Rep2,[1]; [5],89.18%
same,Tg_72h_%Growth_Rep1,[2]; [6],147.37%
same,Tg_72h_%Growth_Rep2,[2]; [7],92.68%
same,Pf_120h_%Growth_Rep1,[3]; [8],103.89%
same,Pf_120h_%Growth_Rep2,[3]; [9],100.78%
CC(C)CCCCCC=CCC(=O)N[C@@H](CC(=O)O)C(=O)N[C@@H]1C(=O)N2CCCC[C@@H]2C(=O)N[C@@H](C(C)C(=O)O)C(=O)N[C@@H](CC(=O)O)C(=O)NCC(=O)N[C@@H](CC(=O)O)C(=O)NCC(=O)N[C@H](C(C)N)C(=O)N[C@@H](C(C)C)C(=O)N2CCC[C@H]2C(=O)NC1C (stereo partly drawn) [Aspartocin D],Pf_72h_%Growth_Rep1,[1]; [16],103.30%
same,Pf_72h_%Growth_Rep2,[1]; [17],89.43%
same,Tg_72h_%Growth_Rep1,[2]; [18],85.89%
same,Tg_72h_%Growth_Rep2,[2]; [19],91.61%
same,Pf_120h_%Growth_Rep1,[3]; [20],152.69%
same,Pf_120h_%Growth_Rep2,[3]; [21],104.90%
O=C(/C=C/C=C/C=C/C1CCCCC1)NC1=C[C@@](O)(/C=C/C=C/C=C/C(=O)NC2=C(O)CCC2=O)[C@@H]2O[C@@H]2C1=O [Asukamycin],Pf_72h_%Growth_Rep1,[1]; [16],79.58%
same,Pf_72h_%Growth_Rep2,[1]; [17],78.85%
same,Tg_72h_%Growth_Rep1,[2]; [18],161.41%
same,Tg_72h_%Growth_Rep2,[2]; [19],93.58%
same,Pf_120h_%Growth_Rep1,[3]; [20],67.03%
same,Pf_120h_%Growth_Rep2,[3]; [21],82.56%
COC(=O)[C@H]1NC(=O)[C@H]2NC(=O)[C@H](NC(=O)[C@@H]3NC(=O)[C@H]4NC(=O)[C@H](NC(=O)[C@H](N)c5ccc(O)c(c5)Oc5cc4cc(O)c5C)[C@H](O)c4ccc(cc4)Oc4cc3cc(c4O[C@@H]3O[C@H](COC4O[C@@H](C)[C@H](O)[C@@H](O)[C@H]4O)[C@@H](O)[C@H](O)[C@H]3O[C@@H]3O[C@@H](CO)[C@H](O)[C@@H](O)[C@H]3O[C@@H]3OC[C@@H](O)[C@@H](O)[C@@H]3O)Oc3ccc(cc3)[C@H]2O[C@@H]2C[C@@H](N)[C@@H](O)[C@H](C)O2)c2ccc(O)c(c2)-c2c(O[C@@H]3O[C@H](CO)[C@@H](O)[C@H](O)[C@@H]3O)cc(O)cc21 (stereo partly drawn) [Ristocetin A sulfate],Pf_72h_%Growth_Rep1,[1]; [4],85.98%
same,Pf_72h_%Growth_Rep2,[1]; [5],111.61%
same,Tg_72h_%Growth_Rep1,[2]; [6],119.41%
same,Tg_72h_%Growth_Rep2,[2]; [7],85.51%
same,Pf_120h_%Growth_Rep1,[3]; [8],82.07%
same,Pf_120h_%Growth_Rep2,[3]; [9],109.30%
CC[C@H]1OC(=O)[C@H](C)[C@@H](O[C@H]2C[C@@](C)(OC)[C@@H](O)[C@H](C)O2)[C@H](C)[C@@H](O[C@@H]2O[C@H](C)C[C@H](N(C)C)[C@H]2O)[C@@]2(C)C[C@@H](C)[C@@]3(O[C@@]1(C)[C@H](O)[C@H]3C)O2 [Anhydroerythromycin A],Pf_72h_%Growth_Rep1,[1]; [16],84.47%
same,Pf_72h_%Growth_Rep2,[1]; [17],88.69%
same,Tg_72h_%Growth_Rep1,[2]; [18],129.02%
same,Tg_72h_%Growth_Rep2,[2]; [19],98.86%
same,Pf_120h_%Growth_Rep1,[3]; [20],87.25%
same,Pf_120h_%Growth_Rep2,[3]; [21],85.54%
C[C@@H]1Cc2ccc(C(=O)N[C@@H](Cc3ccccc3)C(=O)O)c(O)c2C(=O)O1 [BIA-O1196],Pf_72h_%Growth_Rep1,"[1]; P. falciparum 3D7, 72 h, parasite screen at 2 μg/mL, % growth, replicate 1",83.68%
same,Pf_72h_%Growth_Rep2,"[1]; P. falciparum 3D7, 72 h, parasite screen at 2 μg/mL, % growth, replicate 2",90.59%
same,Tg_72h_%Growth_Rep1,"[2]; T. gondii, parasite screen at 2 μg/mL, % growth, replicate 1",126.36%
same,Tg_72h_%Growth_Rep2,"[2]; T. gondii, parasite screen at 2 μg/mL, % growth, replicate 2",89.16%
same,Pf_120h_%Growth_Rep1,"[3]; P. falciparum 3D7, 120 h, parasite screen at 2 μg/mL, % growth, replicate 1",89.68%
same,Pf_120h_%Growth_Rep2,"[3]; P. falciparum 3D7, 120 h, parasite screen at 2 μg/mL, % growth, replicate 2",126.27%
